For orientation: EC50 means the concentration at which the effect is half-maximal.

SMILES strings stand for the structures. Like-named read-outs stand apart in the source and are kept apart here. Bounds are passed on as bounds.

Results on eleven compounds are retold here after patent publication US12595280B2, “Phosphoramidates for the treatment of hepatitis B virus” (priority 2014, dated 2026).

One data set relates to HBV. In words: HBV efficacy assay: viral DNA in HepG2.2.15 supernatant by qPCR. The class given is cell-based. As to conditions: Hepatitis B virus. The method, then: HepG2.2.15 cells (100 μL) in RPMI1640 medium with 10% fetal bovine serum was added to all wells of a 96-well plate at a density of 1×10^4 cells per well and the plate was incubated at 37° C. in an environment of 5% CO2 for 24 hours. Following incubation, six ten-fold serial dilutions of test compound prepared in RPMI1640 medium with 10% fetal bovine serum were added to individual wells of the plate in triplicate. Six wells in the plate received medium alone as a virus only control. The plate was incubated for 6 days at 37° C. in an environment of 5% CO2. The culture medium was changed on day 3 with medium containing the indicated concentration of each compound. One hundred microliters of supernatant was collected from each well for analysis of viral DNA by qPCR and cytotoxicity was evaluated by XTT staining of the cell culture monolayer on the sixth day.
Ten microliters of cell culture supernatant collected on the sixth day was diluted in qPCR dilution buffer (40 μg/mL sheared salmon sperm DNA) and boiled for 15 minutes. Quantitative real time PCR was performed in […] using an Applied Biosystems 7900HT Sequence Detection System and the supporting SDS 2.4 software. Five microliters (5 μL) of boiled DNA for each sample and serial 10-fold dilutions of a quantitative DNA standard were subjected to real time Q-PCR using Platinum Quantitative PCR SuperMix-UDG (Invitrogen) and specific DNA oligonucleotide primers (IDT, Coralville, […]) HBV-AD38-qF1 (5′-CCGTCTGTGCCTTCTCATCTG-3′) (SEQ ID NO: 1), HBV-AD38-qR1 (5′-AGT CCA AGA GTY CTC TTA TRY AAG ACC TT-3′) (SEQ ID NO: 2), and HBV-AD38-qP1 (5′-FAM CCG TGT GCA/ZEN/CTT CGC TTC ACC TCT GC-3′BHQ1) (SEQ ID NO: 3, underlined portion only) at a final concentration of 0.2 μM for each primer in a total reaction volume of 15 μL. The HBV DNA copy number in each sample was interpolated from the standard curve by the SDS.24 software and the data were imported into an Excel spreadsheet for analysis.
For orientation: Quantitative PCR measures a nucleic acid by following its amplification.

The conditions of data set [1]: human, in vivo; cited from earlier work.
Data set [2] relates to HBV encoded polymerase (Hepatitis B virus genotype D subtype ayw). Particulars: cited from earlier work.
Chain of HBV encoded polymerase (Hepatitis B virus genotype D subtype ayw) (P03156 whole entry): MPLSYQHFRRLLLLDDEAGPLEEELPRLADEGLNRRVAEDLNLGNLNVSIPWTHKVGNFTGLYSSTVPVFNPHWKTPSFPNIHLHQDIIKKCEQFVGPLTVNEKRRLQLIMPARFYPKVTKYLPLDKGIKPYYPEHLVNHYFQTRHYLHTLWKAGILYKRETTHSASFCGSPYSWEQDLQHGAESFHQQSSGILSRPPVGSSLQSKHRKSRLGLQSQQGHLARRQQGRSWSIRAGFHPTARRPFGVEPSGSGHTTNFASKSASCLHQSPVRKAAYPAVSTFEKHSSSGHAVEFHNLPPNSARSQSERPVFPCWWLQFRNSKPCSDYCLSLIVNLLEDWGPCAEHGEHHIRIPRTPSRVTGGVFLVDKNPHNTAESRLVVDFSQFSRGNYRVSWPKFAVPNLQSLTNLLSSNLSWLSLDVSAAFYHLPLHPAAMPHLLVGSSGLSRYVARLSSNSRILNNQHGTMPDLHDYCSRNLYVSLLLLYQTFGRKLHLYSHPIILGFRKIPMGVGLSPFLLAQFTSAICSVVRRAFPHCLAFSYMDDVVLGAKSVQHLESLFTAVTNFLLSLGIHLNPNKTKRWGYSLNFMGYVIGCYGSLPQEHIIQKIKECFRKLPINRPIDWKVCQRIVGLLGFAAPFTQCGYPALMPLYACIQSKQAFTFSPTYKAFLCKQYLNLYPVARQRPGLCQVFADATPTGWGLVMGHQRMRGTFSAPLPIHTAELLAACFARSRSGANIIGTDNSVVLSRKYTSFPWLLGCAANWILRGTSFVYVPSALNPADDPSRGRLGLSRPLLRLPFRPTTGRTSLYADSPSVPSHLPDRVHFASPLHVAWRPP
The mark [3] stands for this setting: HepG2.2.15, 144 h, read-out: HBV Efficacy Assay EC50 (μM).
The mark [4] stands for this setting: 144 h, HepG2.2.15 cells, 6 days, viral DNA in supernatant by qPCR, read-out: HBV Efficacy Assay EC50.

For the compound `Cc1cn([C@H]2O[C@@H](CO)[C@H](O)[C@H]2F)c(=O)[nH]c1=O`, the EC50 with HBV (setting [3]) worked out at 0.46 µM.

As for `Cc1cn([C@H]2O[C@@H](CO[P@@](=O)(N[C@@H](C)C(=O)OC(C)C)Oc3ccccc3)[C@H](O)[C@H]2F)c(=O)[nH]c1=O`, the EC50 in the data set on HBV (setting [3]) was found to be 1.71 µM. The same measure, in the same setting: under `Cc1cn([C@H]2O[C@@H](CO[P@](=O)(N[C@@H](C)C(=O)OC(C)C)Oc3ccccc3)[C@H](O)[C@H]2F)c(=O)[nH]c1=O` stands 4.29 µM; under `Cc1cn([C@H]2O[C@@H](CO[P@@](=O)(N[C@@H](C)C(=O)OC(C)C)Oc3ccccc3)[C@H](O[P@@](=O)(N[C@@H](C)C(=O)OC(C)C)Oc3ccccc3)[C@H]2F)c(=O)[nH]c1=O`, 2.9 µM. Consider `Cc1cn([C@H]2O[C@@H](CO[P@](=O)(N[C@@H](C)C(=O)OC(C)C)Oc3ccccc3)[C@H](O[P@](=O)(N[C@@H](C)C(=O)OC(C)C)Oc3ccccc3)[C@H]2F)c(=O)[nH]c1=O`, for which, in the data set with HBV (setting [3]), the EC50 turned out to be 2.39 µM.

In the case of `Cc1cn([C@H]2O[C@@H](CO)C(O)C2F)c(=S)[nH]c1=O` (some centres unmarked), in the data set on HBV (setting [4]), the concentration for a half-maximal effect (EC50) is greater than 100 µM. Regarding `Cc1cn([C@H]2O[C@@H](CO[P@](=O)(N[C@@H](C)C(=O)OC(C)C)Oc3ccccc3)C(O)C2F)c(=S)[nH]c1=O` (some centres unmarked), the concentration for a half-maximal effect (EC50) with HBV (setting [3]) was greater than 100 µM.

Take `Cc1cn([C@H]2O[C@@H](CO[P@@](=O)(N[C@@H](C)C(=O)OC(C)C)Oc3ccccc3)C(O)C2F)c(=S)[nH]c1=O` (some centres unmarked): in the data set with HBV (setting [3]), the EC50 was greater than 100 µM. On to `Nc1ccn([C@@H]2CS[C@H](CO)O2)c(=O)n1`, for which, in the data set with HBV (setting [4]), the EC50 is 0.14 µM.

As to `Cc1cn([C@H]2O[C@@H](CO)[C@H](O)[C@H]2F)c(=O)[nH]c1=O` [Clevudine], in data set [1], the “adverse effect in patients” value is “drug-related skeletal myopathy”. Consider `Cc1cn([C@H]2O[C@@H](COP(=O)(O)OP(=O)(O)OP(=O)(O)O)C(O)C2F)c(=O)[nH]c1=O` (some centres unmarked) [clevudine triphosphate, Clevudine-5′-Triphosphate], for which the “mode of inhibition of the HBV encoded polymerase” value in data set [2] was “competitive non-substrate inhibitor”.
